How the values were obtained:
Format in all cases: cell-based, human
AKT = assay: Inhibition of IGF-I stimulated AKT phosphorylation (Ser473) in Rh1 cells, Western blot; conditions: for Inhibition (phosphorylation of AKT at Ser 473): 5 μM, 1 hour, serum starved Rh1 cells, IGF-I 10 ng/ml 10 minutes, average of two experiments; for inhibition of cellular AKT activation: at the concentrations examined in this assay (1-5 μM)
Experimental: Cell lines and growth conditions. The human cell lines Rh1, Rh18, and Rh30 (ATCC Deposit # CRL 2061) have been described, e.g., by Hazelton et al. Cancer Res 1987;47:4501-4507 and Hosoi et al. Cancer Res. 1999;59:886-894. Rh1, Rh18 and Rh30 cells can each be grown in antibiotic free RPMI-1640 medium (available from BioWhittaker, Walkersville, Md.), supplemented with 10% fetal bovine serum (available from HyClone Laboratories, Logan, Utah) and 2 mM L-glutamine (available from BioWhittaker, Walkersville, Md.) at 37° C. in an atmosphere of 5% CO2. For serum free experiments, cells can be cultured in modified N2E (MN2E) medium (DMEM/F-12, 1:1 mixture) (Sigma, St. Louis, Mo.) supplemented with 1 μg/ml human holo transferrin, 30 nM sodium selenite, 20 nM progesterone, 100 μM putrescine, 30 nM vitamin E phosphate, and 50 μM ethanolamine. Cells in MN2E medium containing 5 μg/ml bovine fibronectin (available from Sigma, St. Louis, Mo.) are preferably plated, and allowed to attach overnight at 37° C. in a humidified, 5% CO2 atmosphere.
(§1) Cellular screening for inhibitors. Rh1, Rh18 and Rh30 cells can each be seeded at a density of 4×10^6/10-cm plate in serum-free medium for overnight attachment. The cells can then be exposed to 0.1% DMSO or to a test compound (for example, a phenoxazine or acridone compound) for one hour, then stimulated with Insulin-like growth factor-I (IGF-I) (10 ng/ml) for 10 minutes.
(§2) Western blot analysis. Cells are rapidly washed with ice-cold phosphate-buffered saline (PBS), placed on ice, and lysed in mammalian protein extraction reagent (M-PER; available from Pierce, Rockford, Ill.) containing one Complete™ mini protease inhibitor tablet (available from Boehringer Mannheim, Mannheim, Germany), 1 mM phenylmethylsulfonyl fluoride, 1 mM Na3VO4 and 1 mM NaF. Cellular debris is pelleted by centrifugation at 17,500×g for 10 minutes at 4° C. The protein concentration of the supernatants is measured by the bicinchoninic acid assay (e.g., using the BCA™ Protein Assay Kit, Pierce, Rockford, Ill., catalog number 23225 or 23227) using bovine serum albumin as the standard.
For the analysis of AKT, ERK-1/2, mTOR, p70S6 kinase, ribosomal protein S6 (rpS6 or S6), and glycogen synthase kinase 3 (GSK-3), equivalent amounts of protein can be separated on a 12% SDS-polyacrylamide gel (available from BioRad, Hercules, Calif.) by electrophoresis and subsequently transferred to a nitrocellulose membrane (also available from BioRad). After a 1 hour incubation in 1×TBS containing 0.05% Tween 20 and 5% blocking reagent (skim milk) (available from Upstate Biotechnology, Lake Placid, N.Y.) at room temperature, the wet nitrocellulose membranes are incubated with appropriate antibodies (available from Cell Signaling Technology, Beverly, Mass.): rabbit polyclonal antiserum specific for the phosphorylated Ser473 or Thr308 of AKT (dilution 1:1000); rabbit polyclonal antiserum specific for phosphorylated Thr202/Tyr204 of ERK-1/2 (dilution 1:1000); rabbit polyclonal antiserum specific for phosphorylated Ser2448 or Ser2481 of mTOR (dilution 1:1000); rabbit polyclonal antiserum specific for phosphorylated Thr389 of p70S6 kinase (dilution 1:4000); rabbit polyclonal antiserum specific for phosphorylated Ser235/236 of rpS6 (dilution 1:1000); or rabbit polyclonal antiserum specific for phosphorylated Ser21/9 of GSK-3α/β (dilution 1:1000). Horseradish peroxidase-conjugated goat anti-rabbit IgG antibody (dilution 1:10,000) can be used as the secondary antibody. Immunoreactive protein can be visualized using Renaissance chemiluminescence reagent (available from Life Science Products Inc., Boston, Mass.).
For these assays, Rh1 cells are seeded in serum-free medium for overnight attachment. The serum starved Rh1 cells are then exposed to 1-5 μM of a compound in Table I for 1 hour before stimulating with IGF-I (10 ng/ml) for 10 minutes. […]

[1] = system: Rh1, Rh18 and/or Rh30 cells; assay: Determination of apoptosis, cell line not specified for the result
Description: Determination of apoptosis.
Similar experiments can be performed using compounds that are relatively poor inhibitors of AKT in vitro but, preferably, are chemically similar to the phenoxazine or other compounds tested that are effective inhibitors of AKT. For example, the apoptosis of cells in response to the phenoxazine compound 12B or 20B, which are relatively poor inhibitors of AKT in vitro, can be compared to apoptosis of cells in response to the chemically similar compounds 10B and/or 15B, which are effective AKT inhibitors. In this way, a skilled practitioner can evaluate whether apoptosis observed in response to an effective AKT inhibitor (e.g., apoptosis observed in response to compound 10B or 15B) is due to a general toxic effect rather than AKT inhibition.

[2] = system: mTOR (Ser2448 and Ser2481), rpS6 (Ser235/236) and p70S6 kinase (Thr389); assay: IGF-I induced phosphorylation of AKT downstream targets in Rh1 cells, Western blot; conditions: 3.5 to 5.0 μM, 1 hour, Rh1 cells serum-free, IGF-I 10 minutes
Experimental: as §1, §2
For the analysis of AKT, ERK-1/2, mTOR, p70S6 kinase, ribosomal protein S6 (rpS6 or S6), and glycogen synthase kinase 3 (GSK-3), equivalent amounts of protein can be separated on a 12% SDS-polyacrylamide gel (available from BioRad, Hercules, Calif.) by electrophoresis and subsequently transferred to a nitrocellulose membrane (also available from BioRad). […]

Row | Compound | Inhibition (phosphorylation of AKT at Ser 473) (AKT) | induction of apoptosis [1] | inhibition of cellular AKT activation (AKT) | inhibition of IGF-I induced phosphorylation of mTOR, rpS6 and p70S6 kinase [2]
1 | 10-(3′-N-piperidinopropyl)-2-chlorophenoxazine [Compound 6B] | ++ (++ ≈ 50% inhibition) | – | – | –
2 | 10-(3′-N-pyrrolidinopropyl)-2-chlorophenoxazine [Compound 7B] | +++ (+++ ≈ 75% inhibition) | – | – | –
3 | 10-(4′-N-piperidinobutyl)-2-chlorophenoxazine [Compound 13B] | +++ (+++ ≈ 75% inhibition) | significant increase in the proportion of apoptotic cells | – | –
4 | 10-(4′-N-piperidinobutyl)-2-trifluoromethylphenoxazine [Compound 13C] | +++ (+++ ≈ 75% inhibition) | – | minimal inhibition | –
5 | 10-(4′-N-pyrrolidinobutyl)-2-chlorophenoxazine [Compound 14B] | +++ (+++ ≈ 75% inhibition) | significant increase in the proportion of apoptotic cells | – | –
6 | 10-(4′-N-pyrrolidinobutyl)-phenoxazine [Compound 14A] | +++ (+++ ≈ 75% inhibition) | – | minimal inhibition | –
7 | 10-[3′-[(β-hydroxyethyl)piperazino]propyl]-2-chlorophenoxazine [Compound 8B] | +++ (+++ ≈ 75% inhibition) | – | – | markedly inhibited
8 | 10-[4′-[(β-hydroxyethyl piperazino]butyl]-phenoxazine [Compound 15A] | +++ (+++ ≈ 75% inhibition) | – | minimal inhibition | –
9 | 10-[[(β-hydroxyethyl) piperazino]acetyl]-2-chlorophenoxazine [Compound 21B] | −−− (−−− <25% inhibition) | – | – | –
10 | Clc1ccc2c(c1)Nc1ccccc1O2 [Compound 1B, 2-chlorophenoxazine] | + (+ ≈ 25% inhibition) | – | – | –
11 | ClCCCN1c2ccccc2Oc2ccc(Cl)cc21 [Compound 2B, 10-(3′-chloropropyl)-2-chlorophenoxazine] | −−− (−−− <25% inhibition) | – | – | –
12 | CCN(CC)CCCN1c2ccccc2Oc2ccc(Cl)cc21 [Compound 3B, 10-[3′-(N-diethylamino)-propyl]-2-chlorophenoxazine] | ++ (++ ≈ 50% inhibition) | – | – | –
13 | OCCN(CCO)CCCN1c2ccccc2Oc2ccccc21 [Compound 4A, 10-[3′-[N-bis(hydroxyethyl)amino]propyl]phenoxazine] | ++ (++ ≈ 50% inhibition) | – | minimal inhibition | –
14 | OCCN(CCO)CCCN1c2ccccc2Oc2ccc(Cl)cc21 [Compound 4B, 10-[3′-[N-bis(hydroxyethyl)amino]propyl]-2-chlorophenoxazine] | ++ (++ ≈ 50% inhibition) | – | – | –
15 | Clc1ccc2c(c1)N(CCCN1CCOCC1)c1ccccc1O2 [Compound 5B, 10-(3′-N-morpholinopropyl)-2-chlorophenoxazine] | −−− (−−− <25% inhibition) | – | – | –
16 | FC(F)(F)c1ccc2c(c1)N(CCCN1CCOCC1)c1ccccc1O2 [Compound 5C, 10-(3′-N-morpholinopropyl)-2-trifluoromethylphenoxazine] | −−− (−−− <25% inhibition) | – | minimal inhibition | –
17 | c1ccc2c(c1)Oc1ccccc1N2CCCN1CCCC1 [Compound 8A, 10-(3′-N-pyrrolidinopropyl)-phenoxazine] | ++ (++ ≈ 50% inhibition) | – | minimal inhibition | –
18 | ClCCCCN1c2ccccc2Oc2ccc(Cl)cc21 [Compound 9B, 10-(4′-chlorobutyl)-2-chlorophenoxazine] | −−− (−−− <25% inhibition) | – | – | –
19 | OCCN(CCO)CCCCN1c2ccccc2Oc2ccccc21 [Compound 11A, 10-[4′-[N-bis(hydroxyethyl)amino]-butyl]phenoxazine] | +++ (+++ ≈ 75% inhibition) | – | minimal inhibition | –
20 | OCCN(CCO)CCCCN1c2ccccc2Oc2ccc(Cl)cc21 [Compound 11B, 10-[4′-[N-bis(hydroxyethyl)amino]butyl]-2-chlorophenoxazine] | +++ (+++ ≈ 75% inhibition) | significant increase in the proportion of apoptotic cells | – | –
21 | OCCN(CCO)CCCCN1c2ccccc2Oc2ccc(C(F)(F)F)cc21 [Compound 11C, 10-[4′-[N-bis(hydroxyethyl)amino]butyl]-2-trifluoromethyl phenoxazine] | +++ (+++ ≈ 75% inhibition) | – | minimal inhibition | –
22 | Clc1ccc2c(c1)N(CCCCN1CCOCC1)c1ccccc1O2 [Compound 12B, 10-(4′-N-morpholinobutyl)-2-chlorophenoxazine] | −−− (−−− <25% inhibition) | neither the compound 12B or 20B | – | –
23 | O=C(CCl)N1c2ccccc2Oc2ccc(Cl)cc21 [Compound 16B, 10-(chloroacetyl)-2-chlorophenoxazine] | −−− (−−− <25% inhibition) | – | – | –
24 | CCN(CC)CC(=O)N1c2ccccc2Oc2ccc(Cl)cc21 [Compound 17B, 10-[(N-diethylamino)acetyl]-2-chlorophenoxazine] | −−− (−−− <25% inhibition) | – | – | –
25 | O=C(CN1CCOCC1)N1c2ccccc2Oc2ccc(Cl)cc21 [Compound 18B, 10-(N-morpholinoacetyl)-2-chlorophenoxazine] | −−− (−−− <25% inhibition) | – | – | –
26 | O=C(CN1CCCCC1)N1c2ccccc2Oc2ccc(Cl)cc21 [Compound 19B, 10-(N-piperidinoacetyl)-2-chlorophenoxazine] | −−− (−−− <25% inhibition) | – | – | –
27 | c1ccc(CNCCCN2c3ccccc3Oc3ccccc32)cc1 [Compound 22A, 10-(3′-N-benzylaminopropyl)-phenoxazine] | +++ (+++ ≈ 75% inhibition) | – | minimal inhibition | –
